Each block holds one molecule with its values, some of them ahead of it.
Tests used:
PC-12 cells = experiment: Cell viability within polyalditol-acrylate redox components (Live/Dead Viability/Cytotoxicity Kit); conditions: 15 min
Protocol: Cell suspensions were prepared as follows: PC-12 cells (ATCC; passage 5; 75% confluency) were harvested from a T-75 flask using Trypsin-EDTA for 2 minutes. The cells were placed in a 15 mL polyethylene conical (VWR) and centrifuged in F-12k media without serum for 4 minutes at 500 rpm. The cells were counted using a hemocytometer, centrifuged for 4 minutes at 500 rpm, and resuspended at 600,000 cells/mL in sterile PBS.
In order to determine the effect of individual components of the matrix forming compositions on cell viability, solutions A-G were independently mixed with PC-12 cells. 50 uL of cell suspension was added to 350 uL of solutions A-G (Table 7). After a 15 minute incubation, cell viability was assessed using a Live/Dead™ Viability/Cytotoxicity Kit (cat.# L3224; Molecular Probes, Eugene, Oreg.).
The effect of a formed matrix on cell viability was also tested. To form the PD-A matrix, solution #1 (200 mg PD-A, 10 uL TEMED, 20 uL 1N HCl, 470 uL PBS) was added in the amount of 200 uL to a 1.6 ml eppendorf (VWR). Solution #2 (400 mg PD-A, 10 mg Potassium persulfate, 75K PC-12 cells, 500 uL PBS) was added in the amount of 200 uL to solution #1 in the eppendorf and mixed for 10 seconds. After a 15 minute incubation, cell viability was assessed using the Live/Dead™ Viability/Cytotoxicity Kit.

melting point: 160 to 165 °C
Structure (SMILES): O=C(O)/C=C\C(=O)NCCCCCC(=O)O

Structure (SMILES): N.N.O=S(=O)(O)OOS(=O)(=O)O [Ammonium persulfate]
Cell viability (%) (PC-12 cells; 10 mg/ml in PBS): 90%
Cell viability (%) (PC-12 cells; 120 mg/ml in PBS): 90%

Structure (SMILES): O=S(=O)([O-])OOS(=O)(=O)[O-].[K+].[K+] [Potassium persulfate]
Cell viability (%) (PC-12 cells; 10 mg/ml in PBS): 90%

Structure (SMILES): O=S(=O)([O-])OOS(=O)(=O)[O-].[Na+].[Na+] [Sodium persulfate]
Cell viability (%) (PC-12 cells; 5 mg/ml in PBS): 90%

From US20070071792A1, “In VIVO formed matrices including natural biodegradale polysaccharides and ophthalmic uses thereof” (priority 2005, published 2007)
